Laboratory results published in publication PMC10480161, “Identification of potent and selective N-myristoyltransferase inhibitors of Plasmodium vivax liver stage hypnozoites and schizonts” (Nature Communications, 2023).
Several values for one entry are separate records, joined by “and”; a condition that tells them apart may be missing. Equal entries are not always repeated.

What was measured:
P. vivax schizonts = assay: P. vivax liver stage assay, schizonts; assay type: cell-based, Plasmodium vivax; conditions: for Number of liverstage Schizonts per well: 20 µM, 8 dpi; for IC50: Plasmodium vivax, Hepatocyte, 120 h, primary human hepatocytes, treatment day 5 to 8 post-infection, isolates 2 and 3
Experimental: We next evaluated the candidate compounds against liver-stage P. vivax (Fig. 5). P. vivax sporozoites were obtained from three independent patient isolates and cultured in primary human hepatocytes from a single donor lot using a 384-well microculture system as described previously. Cells were infected and treated with NMTis at 20 µM beginning day 5 post-infection until day 8 when the infection rates were quantified by fluorescent microscopy.
Accordingly, we applied dose–response curves of all the tested NMTs on parasite isolates 2 and 3 over concentrations up to 20 µM (Fig. 5c, d, Source Data file). We observed similar kinetics for all inhibitors, with a gradual decrease in parasite load upon increasing the drug concentration. […] Nuclei were counted in each well using DAPI staining as a measure of toxicity (Supplementary Fig. 86, Supplementary Source data). We used the phosphatidylinositol 4-kinase inhibitor (PI4Ki), MMV390048, as a positive control for eliminating schizonts[37],[38].
(§1) Plasmodium vivax liver stage assays were performed as described previously. Cryopreserved primary human hepatocytes (Cat No. F00995-P) and hepatocyte culture medium (HCM) (InVitroGroTM CP Medium) were obtained from Bioreclamation IVT, Inc., (Baltimore, MD, USA). Briefly, we seeded 384-well plates with primary hepatocytes from a single donor lot at a density of 25,000 cells per well. We then infected the hepatocytes with 14,000 freshly hand-dissected sporozoites per well. Cells were exposed to the compounds at indicated concentrations from day 5 post-infection. We used Pi4K inhibitor MMV390048, at 20 µM, as a positive control to eliminate P. vivax liver schizonts. We then proceeded to feed cultures every day, replacing the compounds until day 8 post-infection. Cells were fixed with 4% PFA, permeabilized with 1% Triton X-100, blocked with 2% BSA, and stained with DAPI and PvUIS4 antibodies to detect schizonts and hypnozoites forms by confocal microscopy. For antibody dilutions, PvUIS4 (kind gift from Dr. Noah Sather, Seattle Children’s Research Institute) was diluted 1:250 and the secondary antibody was anti-mouse AlexaFluor-594 (Cat # A-11005; RRID: AB_2534073) diluted 1:1000. DAPI was diluted 1:2000. The images were processed, analyzed and outlier cells were removed using IMARIS (Bitplane Inc.) image analysis software.

P. falciparum NF54 = assay: P. falciparum blood stage assay (SYBR Green); assay type: cell-based, Plasmodium falciparum; conditions: 72 h; for P. falciparum blood-stage development (parasite DNA level fluorescence): untreated = 129; for IC50: Plasmodium falciparum, NF54, ring-stage parasites, relative IC50
Experimental: To assess whether any of the PvNMTis developed here could qualify as TCP-1 candidates, we assessed the effect of each compound on blood-stage P. falciparum parasites, as there is currently no well-established in vitro platform for screening P. vivax blood-stage parasites. Synchronized P. falciparum NF54 ring-stage parasites were treated for 72 h with each compound at various concentrations, ranging from 0.625 µM to 10 µM, and parasite DNA replication was measured using a fluorescent DNA binding dye (SYBR Green).
Sorbitol-synchronized P. falciparum NF54 ring-stage parasites were cultured at a parasitemia of 0.5% and hematocrit of 1.5% in a 96-well microtiter plate. Parasites were treated with each NMT inhibitor compound at 0.625, 1.25, 2.5, 5, or 10 µM for 72 h. Direct lysis of the blood cells to release the parasite DNA was performed by adding 100 μl of LBS buffer containing SYBR green I DNA binding dye to each well. […] ICEstimator regression analysis (http://www.antimalarial-icestimator.net/) was used to obtain relative IC50 values for each compound.

PvNMT = PvNMT (Plasmodium vivax, UniProt A5K1A2); assay: NMT activity assay (CPM detection of free CoA), PvNMT; conditions: for IC50: PvNMT IC50, mean of two or more determinations; for SI: enzyme selectivity, HsNMT IC50/PvNMT IC50
Sequence of PvNMT (A5K1A2 entry or part of it): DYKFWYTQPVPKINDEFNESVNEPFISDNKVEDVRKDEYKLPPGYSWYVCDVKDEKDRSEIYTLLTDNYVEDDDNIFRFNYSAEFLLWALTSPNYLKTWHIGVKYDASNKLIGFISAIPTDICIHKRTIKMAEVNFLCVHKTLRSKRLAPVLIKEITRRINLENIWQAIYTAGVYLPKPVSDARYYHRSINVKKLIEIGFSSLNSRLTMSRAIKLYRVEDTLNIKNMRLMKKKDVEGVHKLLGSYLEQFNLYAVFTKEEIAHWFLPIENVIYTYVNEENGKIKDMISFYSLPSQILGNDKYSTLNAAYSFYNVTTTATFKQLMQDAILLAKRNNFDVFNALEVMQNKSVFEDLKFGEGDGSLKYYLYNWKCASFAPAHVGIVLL

HsNMT1 = target: T1, HsNMT1 (Homo sapiens, UniProt P30419); assay: NMT activity assay (CPM detection of free CoA), HsNMT
T1 sequence (P30419 1-496): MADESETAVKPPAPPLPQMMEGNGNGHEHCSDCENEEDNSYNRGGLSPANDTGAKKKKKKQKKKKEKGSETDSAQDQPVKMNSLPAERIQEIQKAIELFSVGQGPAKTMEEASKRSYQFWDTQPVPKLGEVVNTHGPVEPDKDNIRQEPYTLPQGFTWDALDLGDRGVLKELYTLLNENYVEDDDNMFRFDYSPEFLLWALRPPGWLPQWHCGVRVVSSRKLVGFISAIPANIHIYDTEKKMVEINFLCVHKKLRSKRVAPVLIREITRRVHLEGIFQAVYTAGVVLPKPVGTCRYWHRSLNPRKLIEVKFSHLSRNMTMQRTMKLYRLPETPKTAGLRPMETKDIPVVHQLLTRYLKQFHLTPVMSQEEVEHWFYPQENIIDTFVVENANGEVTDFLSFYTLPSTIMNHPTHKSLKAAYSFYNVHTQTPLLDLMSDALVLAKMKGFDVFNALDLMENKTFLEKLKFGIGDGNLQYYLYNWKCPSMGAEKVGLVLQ

P. vivax hypnozoites = assay: P. vivax liver stage assay, hypnozoites; assay type: cell-based, Plasmodium vivax; conditions: for Hypnozoites per well: Isolate 2, replicate wells (Figure 6d); for Number of liverstage hypnozoites per well: 20 µM, 8 dpi; for IC50: Plasmodium vivax, Hepatocyte, 120 h, primary human hepatocytes, treatment day 5 to 8 post-infection, isolate 2
Experimental: Finally, we evaluated the NMT-binding compounds against non-developing P. vivax hypnozoites. […] (Fig. 6A). […] We, therefore, evaluated the impact of all tested compounds on P. vivax hypnozoites using these two isolates.
as §1

[1] = isolate 1, technical replicates (Fig. 5b)
[2] = isolate 2, technical replicates (Fig. 5b)
[3] = isolate 3, technical replicates (Fig. 5b)
[4] = isolate 1, technical replicates (Fig. 6C)
[5] = isolate 2, technical replicates (Fig. 6C)
[6] = isolate 3, technical replicates (Fig. 6C)

Compound	Number of liverstage Schizonts per well (P. vivax schizonts; [1])	Number of liverstage Schizonts per well (P. vivax schizonts; [2])	Number of liverstage Schizonts per well (P. vivax schizonts; [3])	Schizonts per well (P. vivax schizonts; Isolate 2, 1.25 uM)	Schizonts per well (P. vivax schizonts; Isolate 2, 2.5 uM)	Schizonts per well (P. vivax schizonts; Isolate 2, 5 uM)	Schizonts per well (P. vivax schizonts; Isolate 3, 1.25 uM)	Schizonts per well (P. vivax schizonts; Isolate 3, 2.5 uM)	Schizonts per well (P. vivax schizonts; Isolate 3, 5 uM)	Schizonts per well (P. vivax schizonts; Isolate 3, 10 uM)	Schizonts per well (P. vivax schizonts; Isolate 3, 20 uM (Fig. 5c-d))	IC50 (P. vivax schizonts)	schizonts (fold change to DMSO) mean diff (P. vivax schizonts; isolate 1, 20 µM)	schizonts (fold change to DMSO) mean diff (P. vivax schizonts; isolate 2, 20 µM)	schizonts (fold change to DMSO) mean diff (P. vivax schizonts; isolate 3, 20 µM)	P. falciparum blood-stage development (parasite DNA level fluorescence) (P. falciparum NF54; 0.625 uM)	P. falciparum blood-stage development (parasite DNA level fluorescence) (P. falciparum NF54; 1.25 uM)	P. falciparum blood-stage development (parasite DNA level fluorescence) (P. falciparum NF54; 2.5 uM)	P. falciparum blood-stage development (parasite DNA level fluorescence) (P. falciparum NF54; 5 uM)	P. falciparum blood-stage development (parasite DNA level fluorescence) (P. falciparum NF54; 10 uM)	other results
Cc1nn(C)c(C)c1CCOc1ccccc1-c1cccc(N2CCNCC2)c1 [Compound 12d]	1 per well (2×) and 0 per well	2 per well and 0 per well and 1 per well	2 per well and 1 per well	12 per well and 13 per well	11 per well and 9 per well and 15 per well	9 per well and 7 per well and 11 per well	12 per well	6 per well and 11 per well	7 per well and 6 per well	5 per well and 4 per well	2 per well and 1 per well	3300 to 4300 nM	0.967	0.9434	0.8977	123.5	124.2	118.5	101.9	92.65	Schizonts per well (P. vivax schizonts; Isolate 2, 10 uM): 8 per well and 5 per well; IC50 (P. falciparum NF54): 800 nM; IC50 (PvNMT): 48.5 nM; SI (PvNMT): 153.4; IC50 (HsNMT1): 7440 nM; Hypnozoites per well (P. vivax hypnozoites; 1.25 uM): 11 and 8 and 9; Hypnozoites per well (P. vivax hypnozoites; 2.5 uM): 7 (2×) and 8; Hypnozoites per well (P. vivax hypnozoites; 5 uM): 5 (2×) and 7; Hypnozoites per well (P. vivax hypnozoites; 10 uM): 3 (2×) and 2; Number of liverstage hypnozoites per well (P. vivax hypnozoites; [4]): 1 per well (2×) and 0 per well; Number of liverstage hypnozoites per well (P. vivax hypnozoites; [5]): 3 per well and 0 per well and 1 per well; Number of liverstage hypnozoites per well (P. vivax hypnozoites; [6]): 0 per well; Hypnozoites per well (P. vivax hypnozoites; 20 uM): 3 and 0 and 1; IC50 (P. vivax hypnozoites): 4700 nM; hypnozoites (fold change to DMSO) mean diff (P. vivax hypnozoites; isolate 1, 20 µM): 0.939; hypnozoites (fold change to DMSO) mean diff (P. vivax hypnozoites; isolate 2, 20 µM): 0.862
Cc1nn(C)c(C)c1CCOc1cc(F)ccc1-c1cccc(N2CCNCC2)c1 [Compound 12f]	0 per well	1 per well and 0 per well (2×)	3 per well and 2 per well	12 per well and 13 per well and 17 per well	10 per well and 9 per well and 15 per well	8 per well and 9 per well and 11 per well	11 per well	10 per well and 12 per well	7 per well and 5 per well	3 per well and 5 per well	3 per well and 2 per well	3300 to 4300 nM	1.000	0.9811	0.8295	118.6	121.1	112.3	99.32	89.25	IC50 (P. falciparum NF54): 610 nM; IC50 (PvNMT): 15.9 nM; SI (PvNMT): 43.9; IC50 (HsNMT1): 699 nM; Hypnozoites per well (P. vivax hypnozoites; 1.25 uM): 4 (2×) and 2; Hypnozoites per well (P. vivax hypnozoites; 2.5 uM): 3; Hypnozoites per well (P. vivax hypnozoites; 5 uM): 2 and 3 (2×); Hypnozoites per well (P. vivax hypnozoites; 10 uM): 1; Number of liverstage hypnozoites per well (P. vivax hypnozoites; [4]): 1 per well (2×) and 0 per well; Number of liverstage hypnozoites per well (P. vivax hypnozoites; [5]): 1 per well (2×) and 0 per well; Number of liverstage hypnozoites per well (P. vivax hypnozoites; [6]): 0 per well; Hypnozoites per well (P. vivax hypnozoites; 20 uM): 1 (2×) and 0; IC50 (P. vivax hypnozoites): 1500 nM; hypnozoites (fold change to DMSO) mean diff (P. vivax hypnozoites; isolate 1, 20 µM): 0.939; hypnozoites (fold change to DMSO) mean diff (P. vivax hypnozoites; isolate 2, 20 µM): 0.931
